# Laboratory results from patent publication US10086074B2, “Compositions and method for light triggered release of materials from nanovesicles” (The Research Foundation for The State University of New York, priority 2012, dated 2018).
# Tested on: Panc-1 xenografts
# Test: Liposomal release from tumors following intratumoral administration
# Format: in vivo, nude mice
# Conditions: 2 hours following injection, 5 nmol
# Procedure: FIG. 13. Example of spatial and temporal control of PoP-liposome permeabilization a) Spatial control of B. subtilis killing with triggered antibiotic release. Gentamicin was loaded in PoP-liposomes and embedded in hot agar along with the bacteria. The indicated spot was irradiated with a 658 nm laser (200 mW/cm^2) for 10 minutes and the plates were photographed 24 hours later. b) Temporal control of cargo release in Panc-1 xenografts. Mice were imaged following intratumoral injection of 5 nmol of either free sulforhodamine B or sulforhodamine B entrapped at self-quenching concentrations in PoP-liposomes. Representative images are shown of the indicated time points and conditions. Laser activation was performed after 2 hours. Representative results shown with n=3 mice per treatment group.
# Liposomal release from tumors following intratumoral administration: Panc-1 tumors were grown by injecting 20 g female nude mice (Charles River) with 3×10^6 Panc-1 cells in a 1:1 matrigel dilution (BD Biosciences) in the hind flank of the mice. Following several weeks of growth, the tumors were carefully injected intratumorally with sulforhodamine B-PoP-liposomes. Images were acquired with an in vivo fluorescence imager (IVIS Lumina II) at the indicated time points with the mice under isoflurane-induced anesthesia. […]
compound,measurement,value
"CCN(CC)c1ccc2c(-c3ccc(S(=O)(=O)O)cc3S(=O)(=O)[O-])c3ccc(=[N+](CC)CC)cc-3oc2c1 [free rhodamine, sulforhodamine B]",fluorescence in tumor after intratumoral injection,little fluorescence remaining in the tumor
